Source: publication PMC9150124, “Design of a Potent, Selective, and Brain-Penetrant Inhibitor of Wnt-Deactivating Enzyme Notum by Optimization of a Crystallographic Fragment Hit” (Journal of Medicinal Chemistry, 2022)

Assays:
Experiment in all cases: SelectScreen kinase profiling, SSBK ZLyte SP Technology
Assay type in all cases: biochemical
[1] = molecular target: kinase named in conditions (Homo sapiens, UniProt P35968); settings: KDR (VEGFR2), 10 μM
Method: (§1) Kinase selectivity screening was performed by Thermo Fisher Scientific (Paisley, U.K.) in their SelectScreen Biochemical Kinase Profiling Service. Assay information and data are presented in the Supporting Information.
(§2) Kinase selectivity screening was performed by ThermoFisher Scientific (Paisley, U.K.) in their SelectScreenTM
(§3) Biochemical Kinase Profiling service .

[2] = molecular target: kinase named in conditions (Homo sapiens, UniProt Q52WX2); settings: SBK1, 10 μM
Method: as §1, §2, §3

[3] = molecular target: kinase named in conditions (Homo sapiens, UniProt Q13153); settings: PAK1, 10 μM
Method: as §1, §2, §3

[4] = molecular target: kinase named in conditions (Homo sapiens, UniProt P24941); settings: CDK2/cyclin A, 10 μM
Method: as §1, §2, §3

[5] = molecular target: kinase named in conditions (Homo sapiens, UniProt O43293); settings: DAPK3 (ZIPK), 10 μM
Sequence of kinase named in conditions (Homo sapiens, UniProt O43293) (O43293 whole entry): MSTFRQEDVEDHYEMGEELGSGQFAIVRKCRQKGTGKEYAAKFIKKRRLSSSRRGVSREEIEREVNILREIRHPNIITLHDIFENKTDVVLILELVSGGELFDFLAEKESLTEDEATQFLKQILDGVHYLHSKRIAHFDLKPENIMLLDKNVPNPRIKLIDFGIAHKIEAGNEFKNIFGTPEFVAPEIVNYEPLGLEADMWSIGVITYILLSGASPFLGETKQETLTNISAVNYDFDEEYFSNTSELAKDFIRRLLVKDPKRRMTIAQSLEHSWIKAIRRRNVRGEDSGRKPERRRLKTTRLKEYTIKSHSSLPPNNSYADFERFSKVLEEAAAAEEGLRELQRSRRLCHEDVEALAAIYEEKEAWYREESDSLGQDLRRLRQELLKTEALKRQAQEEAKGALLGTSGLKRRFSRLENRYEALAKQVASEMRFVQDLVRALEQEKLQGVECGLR
Method: as §1, §2, §3

[6] = molecular target: kinase named in conditions (Homo sapiens, UniProt O14757); settings: CHEK1 (CHK1), 10 μM
Method: as §1, §2, §3

[7] = molecular target: kinase named in conditions (Homo sapiens, UniProt Q9P286); settings: PAK7 (KIAA1264), 10 μM
Method: as §1, §2, §3

[8] = molecular target: kinase named in conditions (Homo sapiens, UniProt O96013); settings: PAK4, 10 μM
Method: as §1, §2, §3

[9] = molecular target: kinase named in conditions (Homo sapiens, UniProt Q8NE63); settings: HIPK4, 10 μM
Method: as §1, §2, §3

[10] = molecular target: kinase named in conditions (Homo sapiens, UniProt P10721); settings: KIT, 10 μM
Method: as §1, §2, §3

[11] = molecular target: kinase named in conditions (Homo sapiens, UniProt P43250); settings: GRK6, 10 μM
Method: as §1, §2, §3

[12] = molecular target: kinase named in conditions (Homo sapiens, UniProt P53779); settings: MAPK10 (JNK3), 10 μM
Method: as §1, §2, §3

[13] = molecular target: kinase named in conditions (Homo sapiens, UniProt Q16620); settings: NTRK2 (TRKB), 10 μM
Method: as §1, §2, §3

[14] = molecular target: kinase named in conditions (Homo sapiens, UniProt P16234, D842V); settings: PDGFRA D842V, 10 μM
Method: as §1, §2, §3

[15] = molecular target: kinase named in conditions (Homo sapiens, UniProt Q96RG2); settings: PASK, 10 μM
Method: as §1, §2, §3

[16] = molecular target: kinase named in conditions (Homo sapiens, UniProt P08581, M1250T); settings: MET M1250T, 10 μM
Method: as §1, §2, §3

[17] = molecular target: kinase named in conditions (Homo sapiens, UniProt Q9UPE1); settings: STK23 (MSSK1), 10 μM
Method: as §1, §2, §3

[18] = molecular target: kinase named in conditions (Homo sapiens, UniProt P49840); settings: GSK3A (GSK3 alpha), 10 μM
Sequence of kinase named in conditions (Homo sapiens, UniProt P49840) (P49840 whole entry): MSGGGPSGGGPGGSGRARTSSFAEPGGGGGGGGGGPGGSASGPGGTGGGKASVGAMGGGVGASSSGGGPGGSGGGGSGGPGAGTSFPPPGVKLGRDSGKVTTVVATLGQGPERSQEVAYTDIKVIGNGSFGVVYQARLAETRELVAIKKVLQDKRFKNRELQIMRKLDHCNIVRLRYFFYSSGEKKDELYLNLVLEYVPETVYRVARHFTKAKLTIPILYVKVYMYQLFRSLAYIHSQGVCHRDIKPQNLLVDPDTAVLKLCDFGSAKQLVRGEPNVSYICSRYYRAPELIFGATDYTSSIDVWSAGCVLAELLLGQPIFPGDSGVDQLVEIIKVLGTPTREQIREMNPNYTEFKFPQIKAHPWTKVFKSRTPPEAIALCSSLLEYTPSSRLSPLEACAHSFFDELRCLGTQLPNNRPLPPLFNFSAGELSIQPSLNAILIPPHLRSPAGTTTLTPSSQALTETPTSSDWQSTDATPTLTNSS
Method: as §1, §2, §3

[19] = molecular target: kinase named in conditions (Homo sapiens, UniProt Q13464); settings: ROCK1, 10 μM
Method: as §1, §2, §3

[20] = molecular target: kinase named in conditions (Homo sapiens, UniProt P07949, V804L); settings: RET V804L, 10 μM
Method: as §1, §2, §3

[21] = molecular target: kinase named in conditions (Homo sapiens, UniProt P24723); settings: PRKCH (PKC eta), 10 μM
Method: as §1, §2, §3

[22] = molecular target: kinase named in conditions (Homo sapiens, UniProt P48730); settings: CSNK1D (CK1 delta), 10 μM
Method: as §1, §2, §3

[23] = molecular target: kinase named in conditions (Homo sapiens, UniProt P42684); settings: ABL2 (Arg), 10 μM
Method: as §1, §2, §3

[24] = molecular target: kinase named in conditions (Homo sapiens, UniProt O14920); settings: IKBKB (IKK beta), 10 μM
Sequence of kinase named in conditions (Homo sapiens, UniProt O14920) (O14920 whole entry): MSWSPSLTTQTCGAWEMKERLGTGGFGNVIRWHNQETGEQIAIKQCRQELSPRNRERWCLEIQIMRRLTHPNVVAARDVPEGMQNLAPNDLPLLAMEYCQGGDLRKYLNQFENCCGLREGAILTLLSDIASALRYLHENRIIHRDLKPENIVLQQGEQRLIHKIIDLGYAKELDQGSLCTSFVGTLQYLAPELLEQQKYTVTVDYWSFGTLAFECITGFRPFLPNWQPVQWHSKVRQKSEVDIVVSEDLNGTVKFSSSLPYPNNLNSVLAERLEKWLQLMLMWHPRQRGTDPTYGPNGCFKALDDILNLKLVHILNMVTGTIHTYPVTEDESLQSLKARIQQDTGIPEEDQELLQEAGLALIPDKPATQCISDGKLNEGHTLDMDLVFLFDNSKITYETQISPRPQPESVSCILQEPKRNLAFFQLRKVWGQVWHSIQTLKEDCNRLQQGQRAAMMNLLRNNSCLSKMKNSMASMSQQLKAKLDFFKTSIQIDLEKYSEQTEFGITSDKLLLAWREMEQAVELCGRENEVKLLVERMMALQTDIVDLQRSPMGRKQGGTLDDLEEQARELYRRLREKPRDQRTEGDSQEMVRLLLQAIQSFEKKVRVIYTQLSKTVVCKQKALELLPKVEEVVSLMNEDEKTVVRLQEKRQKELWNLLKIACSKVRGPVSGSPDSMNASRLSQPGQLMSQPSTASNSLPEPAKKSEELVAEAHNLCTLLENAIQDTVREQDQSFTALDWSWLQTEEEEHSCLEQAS
Method: as §1, §2, §3

[25] = molecular target: kinase named in conditions (Homo sapiens, UniProt P29376); settings: LTK (TYK1), 10 μM
Method: as §1, §2, §3

[26] = molecular target: kinase named in conditions (Homo sapiens, UniProt P15056); settings: BRAF, 10 μM
Method: as §1, §2, §3

[27] = molecular target: kinase named in conditions (Homo sapiens, UniProt P41240); settings: CSK, 10 μM
Sequence of kinase named in conditions (Homo sapiens, UniProt P41240) (P41240 whole entry): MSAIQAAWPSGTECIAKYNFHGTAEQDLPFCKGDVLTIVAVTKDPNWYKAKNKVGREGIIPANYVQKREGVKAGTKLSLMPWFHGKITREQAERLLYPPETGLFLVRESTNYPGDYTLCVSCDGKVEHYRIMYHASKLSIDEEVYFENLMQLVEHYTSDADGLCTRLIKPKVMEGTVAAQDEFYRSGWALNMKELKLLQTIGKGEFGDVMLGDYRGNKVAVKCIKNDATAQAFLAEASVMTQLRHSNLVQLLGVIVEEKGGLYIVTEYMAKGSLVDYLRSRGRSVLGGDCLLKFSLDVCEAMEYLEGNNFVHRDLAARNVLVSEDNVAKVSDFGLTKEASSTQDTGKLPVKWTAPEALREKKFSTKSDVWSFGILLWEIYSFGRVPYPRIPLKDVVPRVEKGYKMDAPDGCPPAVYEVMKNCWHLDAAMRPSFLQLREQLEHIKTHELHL
Method: as §1, §2, §3

[28] = molecular target: kinase named in conditions (Homo sapiens, UniProt Q16816); settings: PHKG1, 10 μM
Method: as §1, §2, §3

[29] = molecular target: kinase named in conditions (Homo sapiens, UniProt P10721, V559D); settings: KIT V559D, 10 μM
Method: as §1, §2, §3

[30] = molecular target: kinase named in conditions (Homo sapiens, UniProt Q13627); settings: DYRK1A, 10 μM
Method: as §1, §2, §3

[31] = molecular target: kinase named in conditions (Homo sapiens, UniProt P00533, L858R/T790M); settings: EGFR (ErbB1) T790M L858R, 10 μM
Method: as §1, §2, §3

[32] = molecular target: kinase named in conditions (Homo sapiens, UniProt P54756); settings: EPHA5, 10 μM
Sequence of kinase named in conditions (Homo sapiens, UniProt P54756) (P54756 25-1037): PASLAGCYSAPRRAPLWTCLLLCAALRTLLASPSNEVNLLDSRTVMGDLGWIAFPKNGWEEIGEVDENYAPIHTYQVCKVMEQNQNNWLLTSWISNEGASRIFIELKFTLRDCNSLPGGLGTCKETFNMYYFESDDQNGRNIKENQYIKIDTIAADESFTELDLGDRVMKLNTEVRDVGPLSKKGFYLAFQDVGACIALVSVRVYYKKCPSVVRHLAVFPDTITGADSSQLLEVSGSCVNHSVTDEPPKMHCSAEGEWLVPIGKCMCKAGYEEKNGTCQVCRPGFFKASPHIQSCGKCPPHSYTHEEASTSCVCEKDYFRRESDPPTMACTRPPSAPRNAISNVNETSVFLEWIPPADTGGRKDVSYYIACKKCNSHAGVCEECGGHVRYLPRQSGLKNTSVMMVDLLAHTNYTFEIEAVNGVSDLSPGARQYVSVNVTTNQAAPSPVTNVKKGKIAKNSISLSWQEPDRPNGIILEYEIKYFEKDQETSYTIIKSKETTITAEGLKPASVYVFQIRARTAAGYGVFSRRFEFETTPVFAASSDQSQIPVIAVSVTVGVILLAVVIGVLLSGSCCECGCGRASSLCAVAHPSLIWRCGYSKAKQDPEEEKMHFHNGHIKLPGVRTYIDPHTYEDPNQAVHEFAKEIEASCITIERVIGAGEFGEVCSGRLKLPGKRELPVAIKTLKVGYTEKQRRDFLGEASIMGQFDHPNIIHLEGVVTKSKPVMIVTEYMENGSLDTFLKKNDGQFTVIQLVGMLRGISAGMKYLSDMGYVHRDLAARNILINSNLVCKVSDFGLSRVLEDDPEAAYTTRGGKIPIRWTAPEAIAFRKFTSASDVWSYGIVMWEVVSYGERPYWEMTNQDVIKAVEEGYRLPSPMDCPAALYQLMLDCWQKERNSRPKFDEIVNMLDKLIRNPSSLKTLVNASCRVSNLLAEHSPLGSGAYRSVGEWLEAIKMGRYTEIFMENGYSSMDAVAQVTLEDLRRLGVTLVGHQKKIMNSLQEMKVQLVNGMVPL
Method: as §1, §2, §3

[33] = molecular target: kinase named in conditions (Homo sapiens, UniProt Q04912); settings: MST1R (RON), 10 μM
Method: as §1, §2, §3

[34] = molecular target: kinase named in conditions (Homo sapiens, UniProt Q9HBY8); settings: SGK2, 10 μM
Sequence of kinase named in conditions (Homo sapiens, UniProt Q9HBY8) (Q9HBY8 whole entry): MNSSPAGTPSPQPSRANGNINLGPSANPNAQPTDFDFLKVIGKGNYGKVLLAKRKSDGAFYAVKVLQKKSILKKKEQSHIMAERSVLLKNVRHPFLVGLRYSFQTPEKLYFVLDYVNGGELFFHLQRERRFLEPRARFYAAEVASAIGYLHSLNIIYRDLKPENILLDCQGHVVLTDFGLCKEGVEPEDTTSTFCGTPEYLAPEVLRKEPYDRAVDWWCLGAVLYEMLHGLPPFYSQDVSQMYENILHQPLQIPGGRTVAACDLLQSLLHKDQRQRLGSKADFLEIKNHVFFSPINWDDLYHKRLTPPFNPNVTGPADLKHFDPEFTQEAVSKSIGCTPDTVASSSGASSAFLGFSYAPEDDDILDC
Method: as §1, §2, §3

Sequence of kinase named in conditions (Homo sapiens, UniProt P35968) (P35968 20-1356): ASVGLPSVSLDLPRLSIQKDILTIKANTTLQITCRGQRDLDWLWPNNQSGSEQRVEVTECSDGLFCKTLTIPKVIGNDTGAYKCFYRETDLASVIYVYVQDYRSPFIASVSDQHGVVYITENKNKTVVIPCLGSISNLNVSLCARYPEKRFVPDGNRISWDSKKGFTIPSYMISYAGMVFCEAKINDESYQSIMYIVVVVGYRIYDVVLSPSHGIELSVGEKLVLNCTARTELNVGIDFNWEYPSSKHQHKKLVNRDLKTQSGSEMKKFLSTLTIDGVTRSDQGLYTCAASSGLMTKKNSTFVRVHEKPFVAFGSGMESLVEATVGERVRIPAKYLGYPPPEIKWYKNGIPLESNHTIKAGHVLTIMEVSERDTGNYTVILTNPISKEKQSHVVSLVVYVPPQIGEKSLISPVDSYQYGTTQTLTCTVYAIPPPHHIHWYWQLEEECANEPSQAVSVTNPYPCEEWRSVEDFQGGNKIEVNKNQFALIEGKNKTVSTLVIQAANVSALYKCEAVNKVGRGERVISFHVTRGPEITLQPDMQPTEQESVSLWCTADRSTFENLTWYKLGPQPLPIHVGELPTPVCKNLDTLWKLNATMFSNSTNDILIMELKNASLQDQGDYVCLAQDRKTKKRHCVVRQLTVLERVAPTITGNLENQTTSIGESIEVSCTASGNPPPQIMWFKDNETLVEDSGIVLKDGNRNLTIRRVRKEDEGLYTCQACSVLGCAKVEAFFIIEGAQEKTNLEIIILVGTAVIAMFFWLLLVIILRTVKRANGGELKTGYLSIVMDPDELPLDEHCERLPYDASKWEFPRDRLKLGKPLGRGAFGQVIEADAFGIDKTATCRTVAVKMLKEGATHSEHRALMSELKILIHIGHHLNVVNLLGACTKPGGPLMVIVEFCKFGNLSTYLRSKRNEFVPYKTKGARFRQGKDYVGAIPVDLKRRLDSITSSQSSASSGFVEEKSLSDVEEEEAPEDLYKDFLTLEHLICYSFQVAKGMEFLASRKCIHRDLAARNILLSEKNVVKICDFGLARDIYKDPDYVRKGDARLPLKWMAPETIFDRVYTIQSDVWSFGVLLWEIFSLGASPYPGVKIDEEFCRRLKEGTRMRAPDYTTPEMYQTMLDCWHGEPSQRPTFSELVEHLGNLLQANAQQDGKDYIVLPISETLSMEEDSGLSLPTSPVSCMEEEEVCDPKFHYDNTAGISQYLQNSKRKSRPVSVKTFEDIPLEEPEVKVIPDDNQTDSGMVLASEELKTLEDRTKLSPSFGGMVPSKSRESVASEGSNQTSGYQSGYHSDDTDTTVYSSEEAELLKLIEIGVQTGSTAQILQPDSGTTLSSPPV

## FC(F)(F)c1c(Cl)ccc(-n2ccnn2)c1Cl [8l, 1-(2,4-Dichloro-3-(trifluoromethyl)phenyl)-1H-1,2,3-triazole]
[1]
  inhibition at 10 µM: 14%
[2]
  inhibition at 10 µM: 2%
[3]
  inhibition at 10 µM: 23%
[4]
  inhibition at 10 µM: 6%
[5]
  inhibition at 10 µM: 8%
[6]
  inhibition at 10 µM: 24%
[7]
  inhibition at 10 µM: 8%
[8]
  inhibition at 10 µM: 2%
[9]
  inhibition at 10 µM: -2%
[10]
  inhibition at 10 µM: -7%
[11]
  inhibition at 10 µM: 2%
[12]
  inhibition at 10 µM: -1%
[13]
  inhibition at 10 µM: 5%
[14]
  inhibition at 10 µM: 0%
[15]
  inhibition at 10 µM: -1%
[16]
  inhibition at 10 µM: 3%
[17]
  inhibition at 10 µM: 0%
[18]
  inhibition at 10 µM: 7%
[19]
  inhibition at 10 µM: 8%
[20]
  inhibition at 10 µM: 8%
[21]
  inhibition at 10 µM: -1%
[22]
  inhibition at 10 µM: 3%
[23]
  inhibition at 10 µM: 10%
[24]
  inhibition at 10 µM: -1%
[25]
  inhibition at 10 µM: 4%
[26]
  inhibition at 10 µM: 9%
[27]
  inhibition at 10 µM: 2%
[28]
  inhibition at 10 µM: 8%
[29]
  inhibition at 10 µM: -3%
[30]
  inhibition at 10 µM: 0%
[31]
  inhibition at 10 µM: 12%
[32]
  inhibition at 10 µM: 0%
[33]
  inhibition at 10 µM: 11%
[34]
  inhibition at 10 µM: 4%
